# Assay results taken from patent publication US20260041620A1, “NOVEL AMINO ACID BASED SALTS, COMPOSITIONS AND METHODS FOR TREATING SKIN AND IMPROVING SKIN REJUVENATION AND LONGEVITY” (Sytheon Ltd, priority 2023, published 2026).
# Like-named read-outs stand apart in the source and are kept apart here.
# Experiments:
# [1] = biological target: T1, HDAC 11 (Homo sapiens, UniProt Q96DB2); experiment: HDAC 11 fluorogenic assay kit; assay type: biochemical
# T1 construct: purchased BPS Biosciences 50687
# T1 sequence (Q96DB2 1-347): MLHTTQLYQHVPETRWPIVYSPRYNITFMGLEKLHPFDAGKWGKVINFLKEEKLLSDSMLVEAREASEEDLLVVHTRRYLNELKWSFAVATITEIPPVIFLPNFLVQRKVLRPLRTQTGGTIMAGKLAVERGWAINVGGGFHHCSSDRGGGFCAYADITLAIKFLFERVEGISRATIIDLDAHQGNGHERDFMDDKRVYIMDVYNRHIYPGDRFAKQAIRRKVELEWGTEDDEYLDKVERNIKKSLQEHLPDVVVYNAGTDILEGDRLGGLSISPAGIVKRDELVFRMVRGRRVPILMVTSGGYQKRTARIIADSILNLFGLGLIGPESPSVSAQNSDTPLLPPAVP
# Procedure: (§1) Test materials were stored at room temperature and stock solutions were prepared at 20 mg/ml in DMSO. Further dilutions were made in sterile distilled water immediately before being added to the reaction mixture containing a substrate, and the reaction was triggered by the addition of purified HDAC enzymes, Double distilled water was the negative control and trichostatin (1.5 ug/ml) was used as a positive control for validation of each study. The test procedure was as directed in the assay kits. The products of the reactions were measured by fluorometry at ex/em 350/450 nm using multi-well plate fluorometer Cytofluor 4000 (Applied Biosystem, Foster City, CA) or using SpectraMax i3× Multi-Mode Detection Platform from Molecular Devices (Sunnyvale, CA).
# (§2) Statistical significance was assessed with a two-tail Student test. Deviations of ≤20% as compared to water control with p values below 0.05 were considered statistically significant.
# [2] = biological target: T2, FAAH (Homo sapiens, UniProt O00519); experiment: FAAH fluorescence-based inhibitory assay; assay type: biochemical
# T2 sequence (O00519 1-579): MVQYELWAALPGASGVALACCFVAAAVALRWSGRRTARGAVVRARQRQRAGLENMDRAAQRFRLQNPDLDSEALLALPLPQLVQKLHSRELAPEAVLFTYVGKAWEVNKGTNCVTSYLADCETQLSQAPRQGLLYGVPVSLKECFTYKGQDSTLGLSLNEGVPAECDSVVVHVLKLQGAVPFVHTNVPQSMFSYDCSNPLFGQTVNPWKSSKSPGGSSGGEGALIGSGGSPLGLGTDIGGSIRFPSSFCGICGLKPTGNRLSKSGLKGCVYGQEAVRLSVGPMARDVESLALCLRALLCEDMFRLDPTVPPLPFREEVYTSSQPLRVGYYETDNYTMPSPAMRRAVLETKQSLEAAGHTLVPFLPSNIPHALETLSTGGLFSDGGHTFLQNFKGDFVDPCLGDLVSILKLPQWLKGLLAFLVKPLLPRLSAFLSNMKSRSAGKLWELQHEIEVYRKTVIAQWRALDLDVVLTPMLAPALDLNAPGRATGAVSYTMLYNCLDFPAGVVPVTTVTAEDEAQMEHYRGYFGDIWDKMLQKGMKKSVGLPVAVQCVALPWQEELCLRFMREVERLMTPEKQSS
# [3] = biological target: T3, FABP-5 (Homo sapiens, UniProt Q01469); experiment: FABP-5 ELISA inhibitory assay; assay type: biochemical
# T3 construct: purchased Raybiotech 268-10276-1
# T3 sequence (Q01469 whole entry): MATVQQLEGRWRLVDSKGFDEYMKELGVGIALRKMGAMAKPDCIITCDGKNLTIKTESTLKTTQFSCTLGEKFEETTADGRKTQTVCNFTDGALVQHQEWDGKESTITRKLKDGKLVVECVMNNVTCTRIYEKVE
# [4] = biological target: T4, MAGL (Homo sapiens, UniProt Q99685); experiment: MAGL inhibitory assay; assay type: biochemical
# T4 construct: purchased Cayman 10007812
# T4 sequence (Q99685 1-303): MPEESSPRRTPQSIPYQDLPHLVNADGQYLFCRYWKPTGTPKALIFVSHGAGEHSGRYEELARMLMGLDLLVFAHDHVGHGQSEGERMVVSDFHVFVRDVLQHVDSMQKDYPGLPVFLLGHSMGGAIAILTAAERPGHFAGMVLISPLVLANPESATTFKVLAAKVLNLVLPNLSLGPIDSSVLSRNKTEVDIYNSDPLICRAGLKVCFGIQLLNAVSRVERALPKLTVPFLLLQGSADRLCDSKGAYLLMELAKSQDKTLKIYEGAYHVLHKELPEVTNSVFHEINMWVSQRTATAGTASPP
# Procedure: Each study was performed in duplicate and the results averaged.
# The final concentration in each well was 10 μl of sample, 5.6 μM MAGL (Cayman Catalog #10007812) and 23.6 μM 2-Arachidonoyl Glycerol (Cayman catalog #62160).
# [5] = biological target: HDAC2 (Homo sapiens, UniProt Q92769)
# HDAC2, sequence (Q92769 whole entry): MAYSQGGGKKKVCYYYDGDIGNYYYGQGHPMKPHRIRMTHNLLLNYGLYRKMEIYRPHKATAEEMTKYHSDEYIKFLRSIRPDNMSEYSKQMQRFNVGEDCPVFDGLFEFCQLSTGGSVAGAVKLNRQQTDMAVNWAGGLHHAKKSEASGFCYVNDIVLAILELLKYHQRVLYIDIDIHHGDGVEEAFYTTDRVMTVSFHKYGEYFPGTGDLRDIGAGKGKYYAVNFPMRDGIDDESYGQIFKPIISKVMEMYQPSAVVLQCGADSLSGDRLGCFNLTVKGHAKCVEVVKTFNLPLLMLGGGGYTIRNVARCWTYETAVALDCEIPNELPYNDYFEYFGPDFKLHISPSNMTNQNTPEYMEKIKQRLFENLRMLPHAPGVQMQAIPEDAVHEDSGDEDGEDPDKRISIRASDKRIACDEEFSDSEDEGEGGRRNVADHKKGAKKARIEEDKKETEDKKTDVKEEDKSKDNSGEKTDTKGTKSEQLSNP
# Procedure: as §1, §2
# [6] = biological target: HDAC 3 (Homo sapiens, UniProt O15379)
# HDAC 3, sequence (O15379 whole entry): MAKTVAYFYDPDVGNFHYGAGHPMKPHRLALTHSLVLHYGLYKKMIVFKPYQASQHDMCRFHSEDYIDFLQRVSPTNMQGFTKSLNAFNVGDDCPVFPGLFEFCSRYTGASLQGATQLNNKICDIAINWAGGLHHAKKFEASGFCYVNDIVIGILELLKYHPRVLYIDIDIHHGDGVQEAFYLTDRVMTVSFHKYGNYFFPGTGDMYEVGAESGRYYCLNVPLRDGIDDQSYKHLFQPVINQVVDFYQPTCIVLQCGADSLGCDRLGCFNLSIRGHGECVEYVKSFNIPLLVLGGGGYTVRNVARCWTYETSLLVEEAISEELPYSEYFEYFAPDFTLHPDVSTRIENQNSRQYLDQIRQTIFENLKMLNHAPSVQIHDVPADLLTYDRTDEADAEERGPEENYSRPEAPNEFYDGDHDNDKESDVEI
# HDAC 3, sequence (Q9Y618 395-489 partner limits assumed): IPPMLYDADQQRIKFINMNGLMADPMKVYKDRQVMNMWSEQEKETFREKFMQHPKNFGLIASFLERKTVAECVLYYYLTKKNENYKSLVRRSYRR
# Procedure: as §1, §2
Compound,"HDAC 11 activity, % of water-treated controls ([1]; 5 ug/ml)","HDAC 11 activity, % of water-treated controls ([1]; 25 ug/ml)","HDAC 11 activity, % of water-treated controls ([1]; 50 ug/ml)","HDAC 11 activity, % of water-treated controls ([1]; 100 ug/ml)","HDAC 11 activity, % of water-treated controls ([1]; 200 ug/ml)",FAAH IC50 [2],FABP-5 IC50 [3],MAGL IC50 [4],"HDAC 2 activity, % of water-treated controls ([5]; 25 ug/ml)","HDAC 2 activity, % of water-treated controls ([5]; 50 ug/ml)","HDAC 2 activity, % of water-treated controls ([5]; 100 ug/ml)","HDAC 2 activity, % of water-treated controls ([5]; 200 ug/ml)","HDAC 3 activity, % of water-treated controls ([6]; 25 ug/ml)","HDAC 3 activity, % of water-treated controls ([6]; 50 ug/ml)","HDAC 3 activity, % of water-treated controls ([6]; 200 ug/ml)","HDAC 3 activity, % of water-treated controls ([6]; 100 ug/ml)",further results
"CCCC(=O)N[C@@H](CC(C)C)C(=O)[O-].CCCC(=O)N[C@@H](CC(C)C)C(=O)[O-].[Zn+2] [Zn di-(n-butyryl leucinate), Zinc di-(n-butyryl leucinate)]",102%,100%,93%,71%,39%,41.3 µg/mL,390.5 µg/mL,88.3 µg/mL,39%,37%,31%,28%,,,,,
"CCCC(=O)NCCCC[C@H](NC(=O)CCC)C(=O)[O-].CCCC(=O)NCCCC[C@H](NC(=O)CCC)C(=O)[O-].[Zn+2] [Zn di-(di-n-butyryl lysinate), Zinc di-(di-n-butyryl lysinate)]",102%,63%,17%,22%,43%,368.7 µg/mL,644 µg/mL,88.8 µg/mL,20%,20%,17%,15%,14%,5%,4%,,
"CCCC(=O)[O-].[Na+] [Sodium butyrate, reference compound]",,,89%,87%,84%,,,,,89%,93%,94%,,98%,60%,82%,"HDAC 11 activity, % of water-treated controls ([1]; 400 ug/ml): 91%; IC50 [2]: 7.31 mM; IC50 [4]: 5.5 mM; HDAC 2 activity, % of water-treated controls ([5]; 400 ug/ml): 95%; HDAC 3 activity, % of water-treated controls ([6]; 400 ug/ml): 49%"
"CCCC(=O)NCCCCC(NC(=O)CCC)C(=O)[O-].CCCC(=O)NCCCCC(NC(=O)CCC)C(=O)[O-].[Ca+2] (stereo not shown) [Ca di-(di-n-butyryl lysinate), calcium di-(di-n-butyryl lysinate)]",,106%,100%,101%,97%,213.6 µg/mL,786 µg/mL,37.6 µg/mL,96%,90%,97%,94%,116%,120%,119%,121%,
Zinc Di-lysinate [Zn dilysinate],,91%,84%,47%,38%,791.8 µg/mL,"3,014 μg/ml",207.0 µg/mL,12%,1%,1%,9%,,8%,5%,,"HDAC 3 activity, % of water-treated controls ([6]; 10 ug/ml): 18%"
